Source: US20240238213A1 (New York University in Abu Dhabi Corporation, priority 2021, published 2024)

Assays:
[1] = system: Hep-G2 cells; assay: Insulin-FITC internalization in cells by confocal microscopy; format: cell-based, human; settings: 4 h incubation, [Insulin-FITC]=10 μM
[2] = system: STZ-induced diabetic rats; settings: SC insulin 5 IU·kg^−1 or oral TTA-DFP-nCOF/Insulin 50 IU·kg^−1
[3] = system: non-everted mouse small intestine sac; settings: pure insulin; cited from earlier work
[4] = system: R-HepG2 cells; assay: Glucose consumption assay in insulin-resistant cells; format: cell-based, human; settings: R-HepG2, [Insulin]=10 μM
[5] = system: STZ-induced diabetic rats; assay: In vivo hypoglycemic effect; set-up: species or system Wistar rats; settings: subcutaneous injection, 5 IU kg^−1
[6] = system: STZ-induced diabetic rats; assay: In vivo oral glucose tolerance test (OGTT); set-up: species or system Wistar rats; settings: glucose 2.5 g·kg^−1 by gavage 3 hours after treatment, 280 minutes; SC 5 IU·kg^−1 or oral 50 IU·kg^−1
[7] = system: STZ-induced diabetic rats; settings: rat, in vivo

For insulin, the “intracellular insulin-FITC signal / localization” value [1] was “no detectable intracellular insulin-FITC signal”, the HOMA-IR [2] was 0.6 (0.3) and the HOMA-IS [2] was 50.4 (11.0). For the same substance, the “Permeability (reported value)” value [3] was 8.02 μg·cm^−2, the “change of cellular glucose metabolism after 4 h” value ([4]; t=4 h) was “transient increase in cellular glucose metabolism” and the “change of cellular glucose metabolism / insulin resistance after 24 h” value ([4]; t=24 h) was “statistically significant worsening”. For the same substance, the “persistence of the blood glucose reduction” value [5] was “the effect was not sustained”, the “time to marked reduction of the blood glucose level” value [5] was at most 1 h and the “glycaemia in OGTT” value [6] was “decreases severely the glucose plasma level the two first hours after the glucose gavage”. The “histopathology of liver and kidney” value [7] was “commonly observed damages to the liver and kidney”, the “histopathology of the kidney” value [7] was “increase of the size of Bowman capsules, hypertrophy of the glomeruli and necrosis of the tubules” and the “histopathology of the liver” value [7] was “increase of big hepatocytes, a necrosis of hepatocytes and a narrowing in the sinusoids”.
